Measurements from patent publication US11207289B2, “Use of benzofuran lignans to induce IL-25 expression and suppress mammary tumor metastasis” (ACADEMIA SINICA, priority 2016, dated 2021).

Assays:
[1] = test system: Jurkat cells; conditions: cited from earlier work
[2] = test system: human IL-25; test: 3-D culture, western blot of IL-25 in WI38 fibroblasts and WI38-CM; type: cell-based
Description: To mimic the tumor microenvironment, a 3-dimensional (3-D) co-culture system was employed for the maintenance of mammary tumor cells and tumor-associated fibroblasts in adjacent collagen gels as reported in Rajan et al., Nature protocols, 1, 2753-2758 (2006). More specifically, rat tail collagen solution dissolved in acetic acid was neutralized by 1 N NaOH and then mixed with 10×PBS at 4° C. in a ratio of 9:1. To construct solid tumor-like cell mass, mouse (4T1 or TS/A cells) or human (MCF-7 or MDA-MB-231 cells) mammary tumor cells in each correspondent culture medium (1×10^6 cells/ml) were mixed with 4 mg/ml collagen solution in a ratio of 1:1. Four drops of collagen-tumor cell mixture ([…]) were immediately and separately loaded on culture substratum in each well of a 6-well plate. The plates were then turned-over and kept in CO2 incubator at 37° C. for collagen gelation. […]
To pull down and deplete IL-25 protein molecules in 3T3 or MDA-MB-231 cell conditioned media, the Dynabeads antibody coupling kit (Life Technology; 14311D) was used according to the manufacturer's recommendations, yielding 10 mg/ml anti-IL25 antibody (ProteinTech, Chicago, Ill.)-coupled beads. […] The antibody-pulled down proteins from 3T3-CM, NHDF-CM or WI38-CM, were detected for the content of secreted IL-25 protein in each conditioned medium using western blot analysis. […]

[3] = test system: MDA-MB-231-Luc2 cells; test: MDA-MD-231-Luc2 tumor resection model in nude mice: metastasis and survival; type: in vivo; conditions: Q2-3 100 μg/kg, DT 5 mg/kg

COC(=O)/C=C/c1cc(O)c2c(c1)C(C(=O)OC)C(c1ccc(O)c(O)c1)O2 (centres unmarked) [Q2-3, methyl(E)-3-[2-(3,4-dihydroxyphenyl)-7-hydroxy-3-methoxycarbonyl-2,3-dihydro-1-benzofuran-5yl]-prop-2-enoate]
anti-proliferation effect [1]: significant anti-proliferation effect | expression of IL-25 in human (WI38) fibroblasts ([2]; 3-D culture, treatment 24 h or 72 h): increased | level of secreted IL-25 in fibroblast-conditioned medium vs untreated ([2]; WI38-CM): significantly higher | survival rate [3]: more effective than treatment with DT | anti-metastatic activity (luminescent activity of MDA-MB-231-Luc2 cells) ([3]; i.v. 3 weeks post tumor resection): more effective than treatment with DT
